Reference: patent US6623723B2, “Method for treating bronchial constriction and bronchospasm” (Cellular Sciences Inc., priority 2001, dated 2003)

Test system: subjects with mild bronchial asthma
Assay: Lung function (FEV-1 and PEF by spirometry) after a single inhaled dose in mild asthmatics
Assay type: in vivo, human
Conditions: single 5 ml inhaled dose
Description: Three concentrations of sodium pyruvate were studied; 0.5 mM, 1.5 mM and 5.0 mM. Sixty (60) subjects completed the study protocol. The 60 subjects included fifteen (15) non-asthmatic control individuals and forty-five (45) individuals with mild bronchial asthma. […] The total subject population was composed of 40 females and 20 males with a mean population age of 36.6 years (range of 18-66 years).
Individuals with mild bronchial asthma were divided into three groups of 15 subjects; each group received one of the three concentrations of sodium pyruvate. Each subject each inhaled a single dose of physiological saline (Visit 1) and on a return visit inhaled a single dose of 5.0 ml of one of the concentrations of sodium pyruvate (Visit 2).
Lung function assessments and vital signs were monitored at baseline (pre-dose) and at 15 minutes, 30 minutes 1 hour, 2 hours and 4 hours post administration. On a return visit (Visit 2), each subject inhaled a single 5 ml dose of sodium pyruvate in physiological saline. The physiological lung functions assessed included Forced Expiratory Volume in One Second (FEV-1) and Peak Expiratory Flow (PEF).
An FEV-1 and PEF values are obtained during routine spirometry testing. FEV-1 is the volume of air expelled in the first second of a forced expiration starting from full inspiration. It is the most widely accepted indicator of obstructive lung disease severity and used because it is objective and reproducible. PEF is the greatest flow rate that can be sustained for 10 milliseconds on forced expiration from full inflation of the lungs. Changes of greater than 10% FEV-1 and greater than 25% in PEF are generally accepted as clinically relevant ant were used as standards in data evaluation for this study.

## CC(=O)C(=O)[O-].[Na+] [sodium pyruvate]
0.5 mM sodium pyruvate, 15 minutes (p=0.012), 30 minutes (p=0.039), 1 hour (p=0.054), 2 hours (p=0.0001), compared to inhalation of physiological saline
  percent change in FEV-1: greater than 10%
0.5 mM sodium pyruvate, 15 minutes (p=0.014), 30 minutes (p=0.027), 1 hour (p=0.012), 2 hours (p=0.024), 4 hours (p=0.018), compared to inhalation of physiological saline
  percent change in PEF: greater than 25%
1.5 mM sodium pyruvate
  change in FEV-1: No significant change
  change in PEF: No significant change
5.0 mM sodium pyruvate
  change in FEV-1: No significant change
  change in PEF: No significant change
